One assay has as its target T1, HLA-A2 (Homo sapiens, UniProt P04439, D140Y/D185E/D98H/E176V/E277Q/G131W/G231S/I119V/I121R/I166T/I218V/L300P/L318F/N151K/N90K/P208A/P217A/Q86G/Q94H/R138H/R169H/T345S).
T1 construct: endogenous in cells; host or cells: T2A2 / 174CEM-T2 (T2) transport deletion mutant cell line
Nature of the assay: Peptide binding to HLA-A2 on T2A2 cells (flow cytometry). The procedure: Single-color flow cytometric analysis. The method for single-color flow cytometric analysis was described previously (F. Guadagni et al., 1990, Cancer Res. 50:6248–6255). Briefly, cells were washed three times with cold Ca^2+ and Mg^2+-free DPBS and then stained for 1 h with mAb against HLA-A2 (A2,69, One Lambda, Inc., Canoga Park, Calif.), using 10 μg of the 1× working dilution per 10^6 cells. Mineral oil plasmacytoma-104E (Cappel/Organon Teknika Corp., West Chester, Pa.) was used as an isotype control. The cells were washed three times and incubated with a 1:100 dilution of fluorescein isothiocyanate (FITC)-labeled goat anti-mouse immunoglobulin (IgG) (Kirkegaard and Perry Laboratories, Gaithersburg, Md.). The cells were immediately analyzed using a Becton Dickinson FACScan equipped with a blue laser with an excitation of […] at 488 nm. Data were gathered from 10,000 live cells, stored and used to generate results.
Peptide Binding to HLA-A2. […] Briefly, 1×10^6 cells in serum-free Iscove's modified Dulbecco's complete medium were incubated with peptides at a concentration of 50 μg/ml in 24 well culture plates at 37° C. in 5% CO2. Flow cytometry for peptide binding was performed using T2 cells and single-color analysis. After cells were washed three times in DPBS, as described above, they were incubated for 1 h with HLA-A2 specific MAb (One Lambda, Inc.) using 10 μg of a 1× working dilution per 10^6 cells. UPC-10 (Cappel/Organon Teknika) was used as isotype control. The cells were washed three times and incubated with 1:100 dilution of FITC-labeled anti-mouse IgG (Becton Dickinson). Analysis was conducted with the FACScan, as described above. Cells were maintained on ice during all cell preparation and staining.
The four analogs were then tested for binding to the HLA-A2 positive T2A2 cells as described in the Examples section. The NCA peptide was previously shown to not bind to HLA-A2, and was used as a negative […] control. Peptides were added to T2A2 cells at concentrations of 0 to 50 μg/ml.
(In flow cytometry, cells or beads pass a laser one at a time.)

For the next assay, the system named is C1R-A2 cells. The assay is described as follows: 111In release cytotoxic assay, peptide-pulsed targets. It is filed as cell-based, human.
The subject of assay [1] is HLA-A2/K^b transgenic mice. Nature of the assay: Immunization of HLA-A2.1/Kb transgenic mice with peptide-pulsed DCs, IFN-γ production by T cells. It is filed as in vivo, mouse. Conditions: 24 h. From the text:
Transgenic Mice. HLA-A2.1/K^b transgenic mice were kindly provided by Dr. L. Sherman (Scripps Laboratories, San Diego, Calif.). Transgenic mice express the product of the HLA-A2.1/Kb chimeric gene in which the alpha-3 domain of the heavy chain is replaced by mouse H-2/K^b domain, but the HLA-A2.1 alpha-1 and alpha-2 domains are unaltered (A. Vitiello et al., 1991, J. Exp. Med. 173:1007–1015; V. H. Engelhard et al., 1991, J. Immunol. 46:1226–1232).
In Vivo Immunization and Murine T cell Cultures. Three groups of HLA-A2.1/K^b transgenic mice (three mice per group) were immunized s.c. (subcutaneously) in the base of the tail with PSA-3 peptide-pulsed HLA-A2.1/K^b DC, PSA-3A peptide-pulsed DCs from HLA-A2.1/K^b transgenic mice, or DCs only. Peptides were used at a concentration of 50 μg/ml and DCs were used at 1×10^6 cell/mouse/injection. A total of three injections were given to each animal, 2 weeks apart. Mice injected with DCs only were used as controls. Mice were sacrificed 7 days after the last injection, and spleen cells were restimulated in vitro with 25 μg/ml of PSA-3 or PSA3A peptide with irradiated syngeneic spleen cell for 6 days. The cytokine production of these bulk cultures was tested. Peptide-pulsed Jurkat A2 (JA2 K^b) cells were used as stimulator cells. Jurkat 0201 K^b cells are stable transfectants of the human T cell leukemia line, Jurkat, which express the product of HLA-A0201K^b climeric gene (L. A. Sherman et al., 1992, Science 258:815–818).
The HLA-A2/K^b transgenic mouse has been previously reported to aid in the determination of the immunogenicity of HLA-A2 peptides for humans. This in vivo system was thus employed to further analyze and compare the immunogenicity of the PSA-3A peptide with that of the native PSA-3 peptide. DCs from the HLA-A2/K^b transgenic mice were pulsed with either the PSA-3 or the PSA-3A peptide and used to vaccinate HLA-A2b mice. DCs alone (no peptide) were also used as a control vaccine. After three vaccinations at 2-week intervals, T cells were isolated from splenocytes obtained 2 weeks after the last vaccination. The T cells were then incubated with Jurkat A2/K^b cells pulsed with the PSA-3 peptide, the PSA-3A peptide, or no peptide, and production of INF-γ was measured from supernatants after 24 h.

A further assay concerns T-PSA-3 cells. It is filed as cell-based, human.

Several values for one entry are separate records, joined by “and”; a condition that tells them apart may be missing. Equal values may be shown once.

As for VLSNDVCAQV (SEQ ID NO:3) [PSA-3A], the “Binding to HLA-A2 at lower peptide concentrations” value with HLA-A2 (FIG. 1B) is “clearly bound higher levels of HLA-A2 than PSA-3”. In addition, the “Binding to HLA-A2 (relative fluorescence, MFI)” value with HLA-A2 (peptide 0 to 50 μg/ml, FIG. 1A) is given as “higher levels than PSA-3”. Also, the “Fold less peptide than PSA-3 peptide necessary for lysis” value in the assay on C1R-A2 cells (T-PSA-3A line, C1R-A2 targets, E:T 25:1, FIG. 4A) is recorded as “approximately 8 fold”. Moreover, the “Fold less peptide required to achieve similar levels of lysis” value in the assay on C1R-A2 cells (T-PSA-3 line, C1R-A2 targets, E:T 25:1) was “approximately 8 fold”. In the assay on C1R-A2 cells (peptide 25 μg/ml, IVS-3, two E:T ratios, FIG. 3A), the “Lysis of peptide-pulsed C1R-A2 cells by T-PSA-3A line” value is “to a greater extent than cells pulsed with the PSA-3 peptide”. In addition, the “Lysis of peptide-pulsed C1R-A2 cells by T-PSA-3 line” value in the assay on C1R-A2 cells (peptide 25 μg/ml, IVS-3, two E:T ratios, FIG. 3B) was “to a greater extent than those pulsed with the PSA-3A peptide”. Further, the “Production of IFN-γ” value in assay [1] (label = peptide pulsed on immunizing DCs, Jurkat A2/K^b cells pulsed with PSA-3A (25 μg/ml)) is recorded as 6,218.9 pg/ml/10^6 cells; in assay [1] (label = peptide pulsed on immunizing DCs, Jurkat A2/K^b cells with no peptide), below 37.0 pg/ml/10^6 cells; in assay [1] (label = peptide pulsed on immunizing DCs, T cells restimulated with Jurkat A2/K^b cells pulsed with PSA-3 (25 μg/ml)), 5,094.3 pg/ml/10^6 cells; in assay [1] (mice immunized with DCs (no peptide), label = peptide pulsed on Jurkat A2/K^b cells) it was below 37.0 pg/ml/10^6 cells. Further, the “Production of IFN-γ by None (no T cells)” value with T-PSA-3 cells was below 13.0 pg/mL. Also, the “Production of IFN-γ by T-PSA-3” value in the assay on T-PSA-3 cells is 946.6 pg/mL and 915.9 pg/mL.
